Laboratory results: US12527782B2, “Use of hexokinase 2/mitochondria-detaching compounds for treating hexokinase-2 (HK2)-expressing cancers” (Vidac Pharma Ltd., priority 2016, dated 2026)
“Also recorded” adds a separate entry of the source.

How the values were obtained:
[1] = system: Lung (SCLC) LXFS NCI-H727; experiment: CFA, LXFS NCI-H727; type: cell-based, human; details: Cell line/CFA
Description: (§1) CFA was performed by Charles River Laboratories (Freiburg, Germany) in 96-well plate format according to a modified two-layer soft agar assay. The origin of the tumor xenografts has been described (Fiebig et al. 1989, incorporated herein by reference). The list of tumors used in this study is detailed in Table 1.

VDAC1/HK2 complex = target: T1, VDAC1/HK2 complex (Homo sapiens, UniProt P52789); experiment: Microscale Thermophoresis (MST) dissociation of VDAC1/HK2 complex; type: binding; details: cell-free MST; HK2 pre-incubated with 1.5 μM VDAC1
T1 construct: host or cells: E. coli (HK2); sheep liver mitochondria (VDAC1)
Description: (§2) A431 (human skin SCC), HT-297.T (human AK), and HaCaT transformed normal keratinocyte cell lines were from ATCC (Manassas, VA) and were maintained in DMEM supplemented with 10% FCS, 4 mM L-Gln, 1 mM sodium pyruvate, 100 U/mL penicillin, 1 μg/mL streptomycin. Human HK1 and HK2 plasmids were purchased from Addgene (Cambridge, MA) and were purified from E. Coli. VDAC1 was purified from sheep liver mitochondria as described (Arbel et al. 2012, incorporated herein by reference). Human skin tissue microarray (SK208 and SK 805) were purchased from US Biomax Inc. (Rockville, MD).
Studies were conducted on Nanotemper Monolith NT.115 (Munich, Germany). HK1 and HK2 were labeled using Monolith™ NT.115 Protein Labeling Kit BLUE-NHS. As a preliminary study to form the VDAC1-HK complexes, various concentrations of VDAC1 were added to 67 nM HK1 or 71 nM HK2. The preferred VDAC1 concentration was determined to be 1.5 μM. For dissociation studies, HKs were pre-incubated with VDAC1 for 10 minutes and various concentrations of Formula C were added for an additional 10 minutes. MST default parameters were used and analysis was with Nanotemper analysis software. […]
The activity of Formula C in a cell-free assay was evaluated using Microscale Thermophoresis (MST) analysis, which is based on altered movement of a protein in a temperature gradient when bound to other molecules. […]

[2] = system: Lung (NSCLC, large) LXFL 1072; experiment: CFA, LXFL 1072; type: cell-based, human; details: PDX/CFA
Description: as §1

Lung (SCLC) LXFS 2156 = experiment: CFA, LXFS 2156; type: cell-based, human; details: PDX/CFA
Description: as §1

HK2 = target: T2, HK2 (Homo sapiens, UniProt P52789); experiment: HK catalytic activity coupled enzymatic assay, HK2; type: biochemical; details: as a function of ATP or glucose; absence or presence of 10 M Formula C
T2 construct: host or cells: E. coli
Description: as §2
Hexokinase catalytic activity was determined by the coupled enzymatic assay in which hexokinase catalyzes the conversion of glucose to G6P, which is then oxidized by glucose-6-phosphate dehydrogenase (G6PDH) in the presence of NADP to form 6-Phospho-D-Gluconate and NADPH. NADPH production results in a colorimetric signal at 340 nm, which is proportional to the hexokinase catalytic activity. The readings were recorded in an ELISA plate reader Infinite 200 ELISA reader (Tecan, Männedorf, Switzerland).

[3] = system: Lymphoma (Non-Hodgkin) LYXFNH U-937; experiment: CFA, LYXFNH U-937; type: cell-based, human; details: Cell line/CFA
Description: as §1

[4] = system: Lung (NSCLC, epidermoid) LXFE 937; experiment: CFA, LXFE 937; type: cell-based, human; details: PDX/CFA
Description: as §1

T2 sequence (P52789 whole entry): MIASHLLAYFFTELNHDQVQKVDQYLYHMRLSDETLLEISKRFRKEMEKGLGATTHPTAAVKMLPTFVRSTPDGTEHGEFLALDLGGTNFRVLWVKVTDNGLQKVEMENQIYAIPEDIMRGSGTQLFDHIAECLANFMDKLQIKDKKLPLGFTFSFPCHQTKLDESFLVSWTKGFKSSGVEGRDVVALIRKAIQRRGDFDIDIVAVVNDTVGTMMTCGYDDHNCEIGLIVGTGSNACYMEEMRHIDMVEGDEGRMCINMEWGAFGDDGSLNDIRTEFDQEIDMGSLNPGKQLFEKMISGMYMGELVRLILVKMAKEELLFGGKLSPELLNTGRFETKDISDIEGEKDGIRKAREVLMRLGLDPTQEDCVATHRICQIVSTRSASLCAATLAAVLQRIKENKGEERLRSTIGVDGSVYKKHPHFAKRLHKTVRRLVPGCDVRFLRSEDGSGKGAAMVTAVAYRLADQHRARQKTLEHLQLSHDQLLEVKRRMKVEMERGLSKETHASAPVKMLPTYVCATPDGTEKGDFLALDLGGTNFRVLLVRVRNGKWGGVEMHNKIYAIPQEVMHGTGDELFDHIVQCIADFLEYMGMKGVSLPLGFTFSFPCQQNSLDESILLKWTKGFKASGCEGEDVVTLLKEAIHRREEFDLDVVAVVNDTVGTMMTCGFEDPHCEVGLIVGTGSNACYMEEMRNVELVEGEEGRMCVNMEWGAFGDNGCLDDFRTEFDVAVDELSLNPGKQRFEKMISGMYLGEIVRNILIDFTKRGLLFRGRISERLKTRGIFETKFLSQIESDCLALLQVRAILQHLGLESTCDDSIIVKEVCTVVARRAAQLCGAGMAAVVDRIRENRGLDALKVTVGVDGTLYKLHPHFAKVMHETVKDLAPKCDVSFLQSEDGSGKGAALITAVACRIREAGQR
T1 sequence (P52789 whole entry, one chain of several): as the sequence (P52789 whole entry) above

**Q.** How did the IC50 [1] turn out when CC/C=C\CC1C(=O)CCC1CC(=O)Oc1cccc2cccnc12 (stereo not shown) [Formula C] was run?
**A.** 835 nM

**Q.** And the IC50 (VDAC1/HK2 complex)?
**A.** 92 nM

**Q.** What about the IC50 [2] of the same compound?
**A.** 1570 nM

**Q.** What about the IC50 (Lung (SCLC) LXFS 2156) of the same compound?
**A.** 3560 nM

**Q.** What about the HK2 catalytic activity (HK2) of the same compound?
**A.** does not affect; also recorded: did not affect the catalytic activity

**Q.** And the IC50 [3]?
**A.** 1280 nM

**Q.** And the IC50 [4]?
**A.** 5570 nM
